One experiment deals with T1, pSTAT6 (Homo sapiens, UniProt P42226).
T1 construct: pY641-STAT6 MSD read-out
T1 sequence (P42226 1-847): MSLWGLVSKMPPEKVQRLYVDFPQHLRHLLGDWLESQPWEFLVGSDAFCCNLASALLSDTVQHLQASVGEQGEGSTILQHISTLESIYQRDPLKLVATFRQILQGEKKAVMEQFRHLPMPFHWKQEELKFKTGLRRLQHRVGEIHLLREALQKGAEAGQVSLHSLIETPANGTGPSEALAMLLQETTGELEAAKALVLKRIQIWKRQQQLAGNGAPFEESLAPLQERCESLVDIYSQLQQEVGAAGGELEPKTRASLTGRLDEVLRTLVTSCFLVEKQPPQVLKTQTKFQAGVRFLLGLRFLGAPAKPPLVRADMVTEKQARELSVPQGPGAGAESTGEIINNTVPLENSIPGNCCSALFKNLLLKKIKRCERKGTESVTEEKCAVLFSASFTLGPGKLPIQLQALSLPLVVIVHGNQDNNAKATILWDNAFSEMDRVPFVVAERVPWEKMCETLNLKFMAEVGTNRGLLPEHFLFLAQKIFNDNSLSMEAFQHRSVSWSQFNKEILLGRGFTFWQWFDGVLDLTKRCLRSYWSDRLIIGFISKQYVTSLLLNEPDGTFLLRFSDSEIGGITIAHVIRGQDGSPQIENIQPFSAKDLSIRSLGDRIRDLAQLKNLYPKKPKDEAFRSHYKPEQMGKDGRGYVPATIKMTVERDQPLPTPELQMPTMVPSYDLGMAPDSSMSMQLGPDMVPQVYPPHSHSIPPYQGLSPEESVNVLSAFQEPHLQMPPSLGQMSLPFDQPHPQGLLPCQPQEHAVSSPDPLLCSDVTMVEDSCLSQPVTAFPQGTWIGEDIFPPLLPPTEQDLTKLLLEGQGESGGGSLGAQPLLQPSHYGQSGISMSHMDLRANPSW
Description: MSD-pSTAT-PBMC Assay, pSTAT6 (IL-4 stimulated PBMC). Type of experiment: cell-based. As to conditions: compound 3 hrs, then 1 ng/mL IL-4 for 10 min, pY641-STAT6, read-out: pSTAT6 IC50. The text has this:
Cryopreserved Peripheral Blood Mononuclear Cells (PBMC) are from AllCells. Recombinant Human IL-4 and IL-6 are from Peprotech. Mouse monoclonal anti-STAT3 antibody, rabbit monoclonal anti-pY705-STAT3 antibody, rabbit monoclonal Anti-pY641-STAT6 antibody, and lysis buffer are from Cell Signaling Technology (CST). Mouse monoclonal anti-STAT6 antibody is from BioLegend. Assay plates, blocker, and anti-rabbit secondary antibody are from Meso Scale Discovery (MSD).
Cryopreserved PBMCs were thawed out and allowed to recover overnight in IMDM+10% heat-inactivated FBS prior to plating 50,000 (STAT3) or 25,000 (STAT6) cells per well in 96-well U-bottom tissue culture plates. Cells were treated with compound for 3 hrs. then stimulated with 10 ng/mL IL-6 (STAT3) or 1 ng/mL IL-4 (STAT6) for 10 min. Cells were then spun down and washed with ice-cold PBS prior to lysing the cell pellet with 1× lysis buffer (CST) with 1×HALT protease and phosphatase inhibitor cocktail (Thermo). Lysates were transferred to and incubated overnight at 4° C. with shaking in QuickPlex 96-well high bind assay plates (MSD) pre-coated overnight with 30 μL per well of 0.6 μg/mL mouse monoclonal anti-STAT3 antibody (STAT3) or 2 μg/mL mouse monoclonal anti-STAT6 antibody (STAT6) in 1×PBS, and pre-blocked for 1 hour with 3% Blocker-A (MSD). Captured protein in the assay plates were then washed and probed with 25 μL per well of 0.25 μg/ml rabbit monoclonal anti-pY705-STAT3 antibody (STAT3) or 0.18 μg/ml rabbit monoclonal Anti-pY641-STAT6 antibody (STAT6) in 1% Blocker-A for 1 hour at room temperature with shaking, then washed and probed with 25 ul per well of 1 ug/ml Sulfo-TAG Labeled Goat Anti-Rabbit Antibody (MSD) in 1% Blocker-A for 1 hour at room temperature with shaking. Assay plates were then washed and 150 μL of 1× Read Buffer-T (MSD) was added to each well prior to reading on an SQ120 MSD Plate Reader. Assay signal from each sample was subtracted by the signal from unstimulated control wells and normalized to DMSO control wells. IC50 values were calculated using Graph Pad Prism Dose-Response Nonlinear Regression with variable slope. For both pSTAT3 and pSTAT6 A=≤100 nM; B=>100-1000 nM; C=>1000-3000 nM; and D=>3 μM.
Take `Cc1ccc2onc(C(=O)N3CC[C@H]4CC[C@@H](C(=O)N(C)CCCCCCC#Cc5cccc6c5CN(C5CCC(=O)NC5=O)C6=O)N4C(=O)[C@@H](NC(=O)c4ccc5ccc(C(F)(F)P(=O)(O)OCCSC(=O)C(C)(C)C)cc5c4)C3)c2c1` (stereo partly drawn) [Compound 17, S-(2-((((7-(((5S,8S,10aR)-8-((8-(2-(2,6-dioxopiperidin-3-yl)-1-oxoisoindolin-4-yl)oct-7-yn-1-yl)(methyl)carbamoyl)-3-(5-methylbenzo[d]isoxazole-3-carbonyl)-6-oxodecahydropyrrolo[1,2-a][1,5]diazocin-5-yl)carbamoyl)naphthalen-2-yl)difluoromethyl)(hydroxy)phosphoryl)oxy)ethyl) 2,2-dimethylpropanethioate]: the IC50 is more than 3 µM. Regarding `Cc1ccc2onc(C(=O)N3CC[C@H]4CC[C@@H](C(=O)N(C)CCCCCCC#Cc5cccc6c5CN(C5CCC(=O)NC5=O)C6=O)N4C(=O)[C@@H](NC(=O)c4ccc5ccc(C(F)(F)P(=O)(OCCSC(=O)C(C)(C)C)OCCSC(=O)C(C)(C)C)cc5c4)C3)c2c1` (stereo partly drawn) [Compound 18, S,S′-(((((7-(((5S,8S,10aR)-8-((8-(2-(2,6-dioxopiperidin-3-yl)-1-oxoisoindolin-4-yl)oct-7-yn-1-yl)(methyl)carbamoyl)-3-(5-methylbenzo[d]isoxazole-3-carbonyl)-6-oxodecahydropyrrolo[1,2-a][1,5]diazocin-5-yl)carbamoyl)naphthalen-2-yl)difluoromethyl)phosphoryl)bis(oxy))bis(ethane-2,1-diyl)) bis(2,2-dimethylpropanethioate)], the IC50 is less than 0.1 µM.

With `Cc1ccc2onc(C(=O)N3CC[C@H]4CC[C@@H](C(=O)N(C)CCCCCCC#Cc5cccc6c5CN(C5CCC(=O)NC5=O)C6=O)N4C(=O)[C@@H](NC(=O)c4ccc5ccc(C(F)(F)P(=O)(OCOC(=O)OC(C)C)OCOC(=O)OC(C)C)cc5c4)C3)c2c1` (stereo partly drawn) [Compound 19, ((((7-(((5S,8S,10aR)-8-((8-(2-(2,6-dioxopiperidin-3-yl)-1-oxoisoindolin-4-yl)oct-7-yn-1-yl)(methyl)carbamoyl)-3-(5-methylbenzo[d]isoxazole-3-carbonyl)-6-oxodecahydropyrrolo[1,2-a][1,5]diazocin-5-yl)carbamoyl)naphthalen-2-yl)difluoromethyl)phosphoryl)bis(oxy))bis(methylene) diisopropyl bis(carbonate)], the IC50 is less than 0.1 µM. Still for that read-out and setting: with `Cc1ccc2onc(C(=O)N3CC[C@H]4CC[C@@H](C(=O)N(C)CCCCCCC#Cc5cccc6c5CN(C5CCC(=O)NC5=O)C6=O)N4C(=O)[C@@H](NC(=O)c4ccc5ccc(C(F)(F)P(=O)(O)OCOC(=O)OC(C)C)cc5c4)C3)c2c1` (stereo partly drawn) [Compound 20, ((((7-(((5S,8S,10aR)-8-((8-(2-(2,6-dioxopiperidin-3-yl)-1-oxoisoindolin-4-yl)oct-7-yn-1-yl)(methyl)carbamoyl)-3-(5-methylbenzo[d]isoxazole-3-carbonyl)-6-oxodecahydropyrrolo[1,2-a][1,5]diazocin-5-yl)carbamoyl)naphthalen-2-yl)difluoromethyl)(hydroxy)phosphoryl)oxy)methyl isopropyl carbonate] the figure was 1 to 3 µM; with `Cc1ccc2onc(C(=O)N3CC[C@H]4CC[C@@H](C(=O)N(C)CCCCCCC#Cc5cccc6c5CN(C5CCC(=O)NC5=O)C6=O)N4C(=O)[C@@H](NC(=O)c4ccc5ccc(C(F)(F)P(=O)(O)OCCSC(=O)CC(C)C)cc5c4)C3)c2c1` (stereo partly drawn) [Compound 23, S-(2-((((7-(((5S,8S,10aR)-8-((8-(2-(2,6-dioxopiperidin-3-yl)-1-oxoisoindolin-4-yl)oct-7-yn-1-yl)(methyl)carbamoyl)-3-(5-methylbenzo[d]isoxazole-3-carbonyl)-6-oxodecahydropyrrolo[1,2-a][1,5]diazocin-5-yl)carbamoyl)naphthalen-2-yl)difluoromethyl)(hydroxy)phosphoryl)oxy)ethyl) 3-methylbutanethioate], more than 3 µM. On the same count and under the same terms, then `CC(=O)N[C@H](C(=O)N1C[C@H](O)C[C@H]1C(=O)NCc1ccc(-c2scnc2C)cc1OCCCCN(C)C(=O)[C@@H]1CC[C@@H]2CCN(C(=O)c3noc4ccc(C)cc34)C[C@H](NC(=O)c3ccc4ccc(C(F)(F)P(=O)(O)O)cc4c3)C(=O)N21)C(C)(C)C` [Compound 31, ((7-(((5S,8S,10aR)-8-((4-(2-(((2S,4R)-1-((S)-2-acetamido-3,3-dimethylbutanoyl)-4-hydroxypyrrolidine-2-carboxamido)methyl)-5-(4-methylthiazol-5-yl)phenoxy)butyl)(methyl)carbamoyl)-3-(5-methylbenzo[d]isoxazole-3-carbonyl)-6-oxodecahydropyrrolo[1,2-a][1,5]diazocin-5-yl)carbamoyl)naphthalen-2-yl)difluoromethyl)phosphonic acid], with more than 3 µM.

The same experiment, now with this note: read-out: pSTAT6 IC50, compound 3 hrs, then 1 ng/mL IL-4 for 10 min, pY641-STAT6.
For the molecule `CCCOC(=O)[C@H](C)NP(=O)(Cc1ccc2ccc(C(=O)N[C@H]3CN(C(=O)c4n[nH]c5ccc(C)cc45)CC[C@H]4CC[C@@H](C(=O)N(C)CCCCCCC#Cc5cccc6c5CN(C5CCC(=O)NC5=O)C6=O)N4C3=O)cc2c1)Oc1ccccc1` (stereo partly drawn) [Compound 16, propyl (((7-(((5S,8S,10aR)-8-((8-(2-(2,6-dioxopiperidin-3-yl)-1-oxoisoindolin-4-yl)oct-7-yn-1-yl)(methyl)carbamoyl)-3-(5-methyl-1H-indazole-3-carbonyl)-6-oxodecahydropyrrolo[1,2-a][1,5]diazocin-5-yl)carbamoyl)naphthalen-2-yl)methyl)(phenoxy)phosphoryl)-L-alaninate], the IC50 was more than 3 µM. The same measure, in the same setting: then `CCCOC(=O)[C@H](C)NP(=O)(Oc1ccccc1)C(F)c1ccc2ccc(C(=O)N[C@H]3CN(C(=O)c4noc5ccc(C)cc45)CC[C@H]4CC[C@@H](C(=O)N(C)CCCCCCC#Cc5cccc6c5CN(C5CCC(=O)NC5=O)C6=O)N4C3=O)cc2c1` (stereo partly drawn) [Compound 26, propyl (((7-(((5S,8S,10aR)-8-((8-(2-(2,6-dioxopiperidin-3-yl)-1-oxoisoindolin-4-yl)oct-7-yn-1-yl)(methyl)carbamoyl)-3-(5-methylbenzo[d]isoxazole-3-carbonyl)-6-oxodecahydropyrrolo[1,2-a][1,5]diazocin-5-yl)carbamoyl)naphthalen-2-yl)fluoromethyl)(phenoxy)phosphoryl)-L-alaninate], with more than 3 µM.

The target of another experiment is T2, STAT3 (Homo sapiens, UniProt P40763).
T2 construct: Recombinant STAT3 protein (STAT3(G127-1722))
T2 sequence (P40763 127-722 limits assumed): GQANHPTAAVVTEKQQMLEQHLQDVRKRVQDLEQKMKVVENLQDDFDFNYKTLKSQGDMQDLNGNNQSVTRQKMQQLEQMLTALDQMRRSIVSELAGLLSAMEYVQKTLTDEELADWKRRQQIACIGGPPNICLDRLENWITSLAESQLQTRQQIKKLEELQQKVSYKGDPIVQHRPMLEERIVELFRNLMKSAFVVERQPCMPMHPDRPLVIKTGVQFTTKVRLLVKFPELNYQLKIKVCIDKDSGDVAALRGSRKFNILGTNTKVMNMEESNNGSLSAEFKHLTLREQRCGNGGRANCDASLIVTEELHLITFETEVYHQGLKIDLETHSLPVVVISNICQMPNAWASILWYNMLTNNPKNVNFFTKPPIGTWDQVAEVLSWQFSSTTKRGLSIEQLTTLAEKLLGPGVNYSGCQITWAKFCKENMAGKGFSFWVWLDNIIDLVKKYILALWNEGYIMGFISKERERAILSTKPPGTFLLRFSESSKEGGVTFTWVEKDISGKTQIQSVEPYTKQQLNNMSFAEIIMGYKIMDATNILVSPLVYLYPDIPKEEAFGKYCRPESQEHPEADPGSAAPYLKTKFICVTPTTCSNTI
As to the kind of experiment: STAT3 Fluorescence Polarization (FP) Assay. As to conditions: recombinant STAT3 25 nM; probe 5-FAM-GpYLPQTV-NH2 2 nM; 45 min, room temperature; read-out: STAT3 FP IC50. Type of experiment: binding. The protocol:
STAT3 Fluorescence Polarization (FP) Assay
An FP assay was developed to determine IC50 values for test substances. Recombinant STAT3 protein (STAT3(G127-1722)) at 25 nM was combined with a fluorescently labeled, phosphotyrosine peptide probe (5-FAM-GpYLPQTV-NH2) at 2 nM in FP buffer (10 mM HEPES pH 7.4, 50 mM NaCl, 1 mM EDTA, 0.05% Tween 20.2 mM DTT). 50 μL of STAT3-probe mixture was added to serial diluted compounds in black, 96-well plates (Greiner BioOne 655076) to a final concentration of 1% DMSO. Reaction components were mixed, and FP was measured after 45-minute incubation at room temperature using a Tecan Spark multimode plate reader. FP signal (mP) was plotted against the log concentration of the test substances and IC50 values were calculated by nonlinear regression analysis using GraphPad Prism software. For STAT3 FP assay. A=≤100 nM; B=>100-1000 nM; C=>1-10 μM; and D=>10 μM.
On the technique in general: Fluorescence polarisation rises when a labelled molecule tumbles more slowly, as on binding a larger partner.
For the molecule `CC(=O)N[C@H](C(=O)N1C[C@H](O)C[C@H]1C(=O)NCc1ccc(-c2scnc2C)cc1OCCCCN(C)C(=O)[C@@H]1CC[C@@H]2CCN(C(=O)c3noc4ccc(C)cc34)C[C@H](NC(=O)c3ccc4ccc(C(F)(F)P(=O)(O)O)cc4c3)C(=O)N21)C(C)(C)C` [Compound 31, ((7-(((5S,8S,10aR)-8-((4-(2-(((2S,4R)-1-((S)-2-acetamido-3,3-dimethylbutanoyl)-4-hydroxypyrrolidine-2-carboxamido)methyl)-5-(4-methylthiazol-5-yl)phenoxy)butyl)(methyl)carbamoyl)-3-(5-methylbenzo[d]isoxazole-3-carbonyl)-6-oxodecahydropyrrolo[1,2-a][1,5]diazocin-5-yl)carbamoyl)naphthalen-2-yl)difluoromethyl)phosphonic acid], the IC50 was in the range of 1 to 10 µM.

Values taken from patent publication US20260308186A1, “STAT DEGRADERS AND USES THEREOF” (Recludix Pharma, Inc., priority 2023, published 2026).
